# Measurements from patent US4444691A, “11-Cyano-prostaglandins of the F-series” (American Cyanamid Company, priority 1982, dated 1984).
# Read-outs that look alike come from different tables or passages of the source.
# Experiments:
# [1] = system: basal gastric acid secretion; assay: Inhibition of total acid output (basal gastric acid secretion) in the acute gastric fistula rat; assay type: in vivo, female Sprague-Dawley rats; conditions: intraduodenal; for inhibition in vivo at 10 mg/kg / inhibition in vivo at 2.5 mg/kg / inhibition in vivo at 5 mg/kg: Rattus norvegicus
# Procedure: Inhibition of basal gastric acid secretion can be determined by the following procedure.
# Female Sprague-Dawley rats weighing 140-160 grams are fasted in individual cages for 18-24 hours. The rats are then lightly anesthetized with ether and their front teeth extracted to avoid destruction of the plastic cannula. A midline incision is then made and the stomach and duodenum exposed. A flanged polyvinyl tube is inserted into the fundic portion of the stomach and secured with a purse string suture line using 4-O Mersilene. The rat is then dosed by injection of the compound into the duodenum (1.0 ml. per 100 gram body weight). After dosing, the abdominal wall and skin are closed using metal wound clips. The rat is replaced in a cage containing a longitudinal slit to allow the polyvinyl tube to hang freely. An 8 ml. plastic collecting tube is attached to the flanged cannula and hangs freely below the cage. The first 30 minute sample is discarded designating this time as zero. The collecting tube is attached again and samples removed at the end of 60 and 120 minutes. These samples are referred to as "A" and "B" in the table. The hourly samples are then transferred to a 15 ml. centrifuge and centrifuged for 5-10 minutes. Total and sediment volume are then recorded with the supernatent volume being used as volume of secretion. A 1 ml. or less aliquot is then removed and placed in a 50 ml. beaker containing 10 ml. of distilled water. This sample is then titrated using 0.01 N NaPH to pH 7.0 using a Beckman zeromatic pH meter. Volume, titratable acidity (mew/L) and total acid output (ueq/hour) are recorded. Percent inhibition is determined by comparison with the appropriate control. Groups of three rats were used for preliminary testing, and groups of six rats were used for dose-response evaluations. All compounds are administered in a vehicle consisting of 0.5% methocel, 0.4% tween 80, and saline at a constant volume of 1 ml./100 gram rat. Samples are dispersed by sonification. Percent inhibition is calculated on basis of concurrent vehicle control.
# In Table III which follows is given the effect on total acid output after 60 minutes and 120 minutes of intraduodenal dose, of representative compounds of this invention.
# gastric acid secretion = assay: Gastric acid secretion inhibition, modified Shay rat procedure; assay type: in vivo, rats (male, CFE strain); conditions: Rattus norvegicus, read-out: Percent inhibition of gastric acid secretion
# Description: The novel compounds of the present invention are effective inhibitors of gastric acid secretion and of ulcer development in experimental animals, and thus are potentially valuable as agents for the control of gastric secretion and of gastric erosion and as anti-ulcer agents. Gastric acid secretion inhibitory action is usually measured by the "Shay rat" procedure ^(1,2) with some modifications as follows.
# (1) Shay et al., Gastroenterology, 5, 43 (1945).
# The rats (male, CFE strain) were starved for 48 hours (water was given ad libitum) to permit evacuation of stomach contents. On the morning of the experiment, under ether anesthesia, the abdominal region was shaved and a midline incision (1-11/2" ) was made with a scapel. With the help of a closed curved hemostat the duodenum was picked up. Upon getting the duodenum into view, fingers were used to pull the stomach through the opening, the stomach was then gently manipulated with fingers to rid stomach of air and residual matter which were pushed through the pylorus. Two-5 inch sutures were drawn under the pyloric-duodenal puncture. A ligature at the juncture, was formed with one of the threads. The second ligature was also formed but not tightened.
# The test compound or the vehicle, usually 1 ml./100 g. body weight, were injected into the duodenum as close as possible to the first ligature. After injection the second ligature was tightened below the injection site to minimize leakage. The stomach was placed back through the opening into the abdominal cavity, the area of incision was washed with saline and the incision was closed with autoclips. (Occasionally, instead of an intraduodenal injection, animals were dosed by the oral or subcutaneous route. In the latter case, dosing was done thirty to sixty minutes before the operation.)
# The abdominal cavity was exposed by cutting with scissors and the esophagus close to the stomach was clamped off with a hemostat, the stomach was removed by cutting above the hemostat (the esophagus was cut) and between the two sutures. Extraneous tissue was removed, the stomach washed with saline and blotted on gauze. A slit was carefully made in the stomach which was held over a funnel and the contents were collected in a centrifuge tube. The stomach was further cut along the outside edge and turned inside out. Two ml. H2 O were used to wash the stomach contents into the respective centrifuge tube. The combined stomach contents and wash were then centrifuged out for 10 minutes in the International Size 2 Centrifuge (setting at 30). The supernatant was collected, volume measured and recorded, 2 drops of a phenylphthalein indicator (1% in 95% ethanol) were added and the solution was titrated with 0.02 N NaOH (or with 0.04 N NaOH when large volumes of stomach contents were encountered) to pH 8.4 (because of usual coloring of the stomach contents, phenolphthalein was only used to permit visual indication that the end point was near) and the amount of acid present was calculated.
# Compounds inducing inhibition of gastric acid secretion of 20% or more were considered active. In a representative operation, and merely by way of illustration, the results obtained with this assay with typical compounds of the present invention are given in Table II below.
# [2] = system: ulcerogenic effects induced by indomethacin (stomach ulcers); assay type: in vivo, rat; conditions: indomethacin 20 mg/kg s.c., score 0-4
# Procedure: It is further to be noted that although prostaglandins in general are not effective when administered by oral route, the compounds of this invention are effective orally. The assay to determine the protective effect of these compounds is carried out in the following manner.
# Rats were starved for 48 hours (water was given ad libitum). Indomethacin (20 mg./kg. of body weight) was administered by the subcutaneous route and one-half the dose of the test compound was administered by gavage at the same time. After three hours, the second half of the test compound was administered, also by gavage. Five hours after the administration of indomethacin the animals were decapitated and the stomachs removed. The stomachs were washed with distilled water, blotted on gauze, cut along the larger curvature, and the contents rinsed with distilled water. The stomachs were spread out, pinned on a cork and visualized under magnifying glass for ulcers. The criteria for scoring of ulcers was as previously reported. [Abdel-Galil et al. Brit. J. Pharmac. Chemotherapy 33:1-14 (1968)]. […]
# 1 Petechial hemorrhage of pin point ulcers
# 3 Many ulcers, a few large
# 4 Many ulcers, mainly large
# Control animals treated with indomethacin but not test compound consistently give scores of about 2.5-3.5. Control animals treated with neither indomethacin not test compound give scores of about 0.5-0.8. Compounds diminishing the control ulcer score by 0.5 unit or more are considered to be active.
# [3] = 1 h, 10 mg/kg, 60 min, read-out: % Inhibition of total acid output, after 60 minutes (A)
# [4] = 2 h, 10 mg/kg, 120 min, read-out: % Inhibition of total acid output, after 120 minutes (B)
# [5] = total oral dose 50 mg/kg, controls 2.5-3.2
# [6] = total oral dose 25 mg/kg, controls 2.7-3.9
# [7] = 1 h, 60 min, read-out: % Inhibition of total acid output, after 60 minutes (A)
# [8] = 2 h, 120 min, read-out: % Inhibition of total acid output, after 120 minutes (B)
Compound,"inhibition in vivo at 10 mg/kg [1, 3] [%]","inhibition in vivo at 10 mg/kg [1, 4] [%]",inhibition in vivo at 50 mg/kg (gastric acid secretion; intraduodenal) [%],further results
"CCCCCC(C)/C=C/[C@@H]1[C@@H](C/C=C\CCCC(=O)O)[C@@H](O)C[C@H]1C (stereo partly drawn) [l-9α-hydroxy-11α,15-dimethyl-S--cis,13-trans-prostadienoic acid]",25,20,–,–
CCCCC[C@@H](/C=C/[C@H]1C(C#N)CC(=O)[C@@H]1C/C=C\CCCC(=O)OC)OC(C)=O (stereo partly drawn) [11α/11β-cyano-11-deoxy-15-O-acetyl-prostaglandin E2 methyl ester],40,34,–,"inhibition in vivo at 25 mg/kg (gastric acid secretion; intraduodenal, 25 mg/kg): 51%; Ulcer score, treated animals ([2]; total oral dose 12.5 mg/kg, controls 2.5-3.0): 2.0; Ulcer score, treated animals [2, 5]: 1.3"
CCCCC[C@H](O)/C=C/[C@H]1[C@H](C[N+](=O)[O-])C[C@H](O)[C@@H]1C/C=C\CCCC(=O)O [11α-nitromethyl-11-deoxyprostaglandin F2α],–,–,38,"Ulcer score, treated animals [2, 5]: 1.8"
CCCCC[C@H](O)/C=C/[C@H]1[C@H](SC)CC(=O)[C@@H]1C/C=C\CCCC(=O)OC [l-11α-methylthio-11-deoxyprostaglandin-E2 methyl ester],–,–,–,"inhibition in vivo at 100 mg/kg (gastric acid secretion; intraduodenal, 100 mg/kg): 55%"
"CCCCC[C@H](O)/C=C/[C@@H]1[C@@H](C/C=C\CCCC(=O)O)[C@@H](O)C[C@H]1c1ccccc1 [l-11α-phenyl-11-deoxyprostaglandin-F2 α, l-11-deoxy-11α-phenylprostaglandin-F2 α]",–,–,–,"Ulcer score, treated animals [2, 6]: 2.0"
CCCCC[C@H](O)/C=C/[C@H]1C(C#N)CC(=O)[C@@H]1C/C=C\CCCC(=O)OC (stereo partly drawn) [11α/β-cyano-11-deoxyprostaglandin E2 methyl ester],–,–,33,"Ulcer score, treated animals [2, 6]: 1.3"
CCCCC[C@H](O)/C=C/[C@@H]1[C@@H](C/C=C\CCCC(=O)O)[C@@H](O)C[C@H]1C(N)=O [11α-carboxamido-11-deoxyprostaglandin F2α],–,–,27,"Ulcer score, treated animals [2, 5]: 2.3"
CCCCC[C@H](O)/C=C/[C@H]1[C@@H](CO)C[C@H](O)[C@@H]1C/C=C\CCCC(=O)O [l-11β-hydroxymethyl-11-deoxyprostaglandin-F2 α],0,43,–,–
"CCCCCC(C)/C=C/C1C(C)CC(=O)C1C/C=C\CCCC(=O)O (stereo not drawn) [l-11α,15-dimethyl-11,15-bis-deoxyprostaglandin-E2 α]",–,–,–,"Ulcer score, treated animals [2, 5]: 2.2"
CCCCC[C@@H](/C=C/[C@H]1[C@H](SC)CC(=O)[C@@H]1C/C=C\CCCC(=O)OC)OC(C)=O [l-11α-methylthio-11-deoxyprostaglandin-E2 15-O--acetate methyl ester],–,–,35,"Ulcer score, treated animals [2, 5]: 2.0"
CCCCC[C@@H](/C=C/[C@H]1[C@H](C)CC(=O)[C@@H]1C/C=C\CCCC(=O)OC)OC(C)=O [l-11α-methyl-11-deoxyprostaglandin-E2 15-O--acetyl methyl ester],–,–,63,–
"CCCCCC(O)/C=C/C1C(S)CC(O)C1C/C=C\CCCC(=O)O (stereo not drawn) [l-11-mercapto-11-deoxprostaglandin-F2 α, l-11-deoxy-11α-mercaptoprostaglandin-F2 α]",–,–,–,"% Inhibition of total acid output, after 60 minutes (A) ([1]; 10 mg/kg, 60 min): 44%; % Inhibition of total acid output, after 120 minutes (B) ([1]; 10 mg/kg, 120 min): 55%"
CCCCC[C@H](O)/C=C/[C@@H]1[C@@H](C/C=C\CCCC(=O)O)[C@@H](O)C[C@H]1C(C)(C)O [11-deoxy-11α-(1-hydroxy-1-methylethyl)prostaglandin-F2α],36,35,–,–
CCCCCC(C)/C=C/[C@H]1[C@H](C)CC(=O)[C@@H]1C/C=C\CCCC(=O)OC (stereo partly drawn) [11-deoxy-11α-methyl-15-deoxy-15-methylprostaglandin E2 methyl ester],–,–,40,–
"CCCCC[C@H](O)/C=C/[C@H]1[C@H](CC)C[C@H](O)[C@@H]1C/C=C\CCCC(=O)O [l-11α-ethyl-11-deoxyprostaglandin-F2 α, 11α-ethyl-11-deoxyprostaglandin F2α]",–,–,–,"Ulcer score, treated animals [2, 6]: 2.2"
CCCCC[C@@H](/C=C/[C@H]1[C@H](SCC)CC(=O)[C@@H]1C/C=C\CCCC(=O)OC)OC(C)=O [11-deoxy-11α-ethylthio-15-O-acetyl prostaglandin E2 methyl ester],80,24,27,"inhibition in vivo at 2.5 mg/kg [1, 7]: 54%; inhibition in vivo at 5 mg/kg [1, 7]: 19%; inhibition in vivo at 2.5 mg/kg [1, 8]: 51%; inhibition in vivo at 5 mg/kg [1, 8]: 59%"
CCCCC[C@H](O)/C=C/[C@H]1[C@H](C(C)(C)O)CC(=O)[C@@H]1C/C=C\CCCC(=O)O [11-deoxy-11α-(1-hydroxy-1-methylethyl)prostaglandin-E2],–,–,–,"inhibition in vivo at 8 mg/kg (gastric acid secretion; sc, subcutaneous, 8 mg/kg): 31%"
CCCCC[C@H](O)/C=C/[C@@H]1[C@@H](C/C=C\CCCC(=O)O)[C@@H](O)C[C@H]1C(C)C [11α-isopropyl-11-deoxyprostaglandin F2α],44,35,–,–
